# Measurements reported in US20160339005A1, “COMPOSITIONS AND METHODS FOR TREATING OCULAR DISEASES” (AKEBIA THERAPEUTICS, INC., priority 2014, published 2016).
# Entries after “also recorded” stand apart in the source; their conditions may differ.
# Tested on: choroidal neovascularization (CNV)
# Assay: Rodent model of surgically (laser) induced CNV, intravitreal injection, fluorescein angiography lesion areas
# Assay type: in vivo, Brown Norway rats
# Parameters: Mean of lesion areas, Left Eye (OS) / Mean of lesion areas, Both Eyes (OU): unit not given here
# Details: for fluorescein leakage in fluorescein angiography images: sample animal
# Text: In one example, twenty-four (24) naïve, male Brown Norway rats, 225-250 g at study start, are acclimated for a minimum of 5 days prior to dosing. Animals are weighed prior to dosing and at euthanasia. All animals undergo pre-screening ophthalmic examinations prior to study start as follows:
# CNV is then induced via laser treatment (e.g. laser photocoagulation (20-100-μm spot size; 0.05-0.1 seconds duration; 50 to 200 mW) at six positions of the posterior pole in each eye) by a board certified veterinary ophthalmologist. Only animals in which the laser produces a bubble indicating rupture of Bruch's membrane, are included in the study. The compound is administered in suitable form of a Test Article. Test and Control Article treatment begin 3 days post laser induction. In another experiment, the Test and Control Article treatments begin prior to or immediately post induction, in yet other experiments, Test and Control Article treatments begin 10 days post induction. Study duration is 3 weeks, with the option to extend on a weekly basis based on extent of healing. Animals have clinical ophthalmic examinations and fluorescein angiography approximately 3 days post-induction (prior to Test Article treatment) to confirm disease state. The route of administration for Test Article(s) and vehicle control is intravitreal (IVT) injection on Day 1, which is approximately 3-4 days post-induction, once the CNV disease state has been confirmed.
# In the first experiment, a low dose (5 μL at 3.7 mg/mL) and a high dose (5 μL at 7.8 mg/mL) of the compound are evaluated against vehicle control. The three treatment groups are (N=8 per group, 24 animals total):
# A. Test Article—Low Dose (19 μg/eye)
# B. Test Article—High Dose (39 μg/eye)
# Daily gross ocular observations and general health observations are performed. Additional exams, performed weekly up to 3 weeks post Test Article dosing, include clinical ophthalmic exams, slit-lamp biomicroscopy, indirect ophthalmoscopy, and fluorescein staining if needed. Ocular findings are scored using the McDonald-Shadduck scoring system.
# Fluorescein angiography (e.g. using Heidelberg SPECTRALIS® instrumentation) is performed to determine the degree of neovascularization (NV) in the retina and/or choroid. After fluorescein angiography, tissues are then harvested for possible future analysis (e.g. eyes are fixed in Davidson's solution and then transferred to 70% ethanol). Alternatively, the area of retinal and/or choroidal NV can be determined in various other ways. In one example, prior to sacrifice, the rodents are perfused with PBS containing 50 mg/mL of fluorescein-labeled dextran (2×10^6 Da average molecular mass). Alternatively, fluorescein-labeled Lycopersicon esculentum (tomato) lectin can be used. The choroids are then flat mounted and examined by fluorescence microscopy. A standard image analysis software is then used to measure the total area of retinal/choroidal NV with the investigator masked with respect to treatment group.
# Results from an initial experiment treating animals with a control vehicle, low dose (19 μg/eye), or high dose (39 μg/eye) of Compound 7 are shown in FIGS. 1-6.
# Animals were dosed on Day 3. […] The surrounding regions around the laser burn continued to show a higher fluorescence from Days 3-14. Day 9 intensities were attenuated due to the presence of fluorescein in both the anterior and posterior chambers of the eye.
# FIGS. 4-6 and Tables 1-3 below show Mean (±SEM) of lesion areas in the right, left and both eyes, respectively.
# [1] = High Dose (39 μg/eye, 5 μL at 7.8 mg/mL) IVT, Day 3 (prior to dosing)
# [2] = High Dose (39 μg/eye, 5 μL at 7.8 mg/mL) IVT, Day 9
# [3] = High Dose (39 μg/eye, 5 μL at 7.8 mg/mL) IVT, Day 14
# [4] = High dose (39 μg/eye) IVT, Day 3 (baseline)
# [5] = High dose (39 μg/eye) IVT, Day 9
# [6] = High dose (39 μg/eye) IVT, Day 14
# [7] = Low Dose (19 μg/eye, 5 μL at 3.7 mg/mL) IVT, Day 3 (prior to dosing)
# [8] = Low Dose (19 μg/eye, 5 μL at 3.7 mg/mL) IVT, Day 9
# [9] = Low Dose (19 μg/eye, 5 μL at 3.7 mg/mL) IVT, Day 14
# [10] = Low dose (19 μg/eye) IVT, Day 3 (baseline)
# [11] = Low dose (19 μg/eye) IVT, Day 9
# [12] = Low dose (19 μg/eye) IVT, Day 14
compound,measurement,setting,value
"O=C(O)CNC(=O)c1ncc(-c2cccc(F)c2)cc1O [Compound 7, {[5-(3-fluorophenyl)-3-hydroxypyridine-2-carbonyl]amino} acetic acid]","Mean of lesion areas, Both Eyes (OU)",[1],4.21
same,"Mean of lesion areas, Left Eye (OS)",[1],3.86
same,"Mean of lesion areas, Right Eye (OD)",[1],4.56
same,"Mean of lesion areas, Both Eyes (OU)",[2],1.71
same,"Mean of lesion areas, Left Eye (OS)",[2],1.68
same,"Mean of lesion areas, Right Eye (OD)",[2],1.75
same,"Mean of lesion areas, Both Eyes (OU)",[3],0.71
same,"Mean of lesion areas, Left Eye (OS)",[3],0.84
same,"Mean of lesion areas, Right Eye (OD)",[3],0.58
same,"percentage area reduction of lesion areas, Both Eyes",[4],0.00%
same,"percentage area reduction of lesion areas, Left Eye",[4],0.00%
same,"percentage area reduction of lesion areas, Right Eye",[4],0.00%
same,"percentage area reduction of lesion areas, Both Eyes",[5],−53.83%
same,"percentage area reduction of lesion areas, Left Eye",[5],−46.66%
same,"percentage area reduction of lesion areas, Right Eye",[5],−61.00%
same,"percentage area reduction of lesion areas, Both Eyes",[6],−83.63%
same,"percentage area reduction of lesion areas, Left Eye",[6],−79.77%
same,"percentage area reduction of lesion areas, Right Eye",[6],−87.49%
same,"Mean of lesion areas, Both Eyes (OU)",[7],3.74
same,"Mean of lesion areas, Left Eye (OS)",[7],3.48
same,"Mean of lesion areas, Right Eye (OD)",[7],4.01
same,"Mean of lesion areas, Both Eyes (OU)",[8],1.84
same,"Mean of lesion areas, Left Eye (OS)",[8],1.81
same,"Mean of lesion areas, Right Eye (OD)",[8],1.88
same,"Mean of lesion areas, Both Eyes (OU)",[9],0.96
same,"Mean of lesion areas, Left Eye (OS)",[9],1.02
same,"Mean of lesion areas, Right Eye (OD)",[9],0.90
same,"percentage area reduction of lesion areas, Both Eyes",[10],0.00%
same,"percentage area reduction of lesion areas, Left Eye",[10],0.00%
same,"percentage area reduction of lesion areas, Right Eye",[10],0.00%
same,"percentage area reduction of lesion areas, Both Eyes",[11],−48.43%
same,"percentage area reduction of lesion areas, Left Eye",[11],−44.39%
same,"percentage area reduction of lesion areas, Right Eye",[11],−52.47%
same,"percentage area reduction of lesion areas, Both Eyes",[12],−73.63%
same,"percentage area reduction of lesion areas, Left Eye",[12],−68.00%
same,"percentage area reduction of lesion areas, Right Eye",[12],−79.25%
same,vascular leakage in the ocular vasculature compared with vehicle control (lesion areas over time),"low dose and high dose, FIGS. 4-6 (OD, OS, OU)",reduction of vascular leakage
same,overall fluorescence and leakage compared to animals treated with vehicle control,low or high doses (19 or 39 μg/eye) IVT,reduced overall fluorescence and leakage
same,fluorescein leakage in fluorescein angiography images,"high dose (5 μL at 7.8 mg/mL), Day 9",Lower fluorescence leakage
same,fluorescein leakage in fluorescein angiography images,"high dose (5 μL at 7.8 mg/mL), Day 14",no fluorescein leakage was observed; also recorded: no fluorescence leakage
same,fluorescein leakage in fluorescein angiography images,"low dose (5 μL at 3.7 mg/mL), Day 9",Lower fluorescence leakage
same,fluorescein leakage in fluorescein angiography images,"low dose (5 μL at 3.7 mg/mL), Day 14",almost subsided completely; also recorded: minimal fluorescence leakage
